Patent US20150031668A1, “CHROMAN DERIVATIVES AS TRPM8 INHIBITORS” (AMGEN INC., priority 2013, published 2015)

What follows are molecules tested against T1, human TRPM8 (Homo sapiens, UniProt Q7Z2W7) (assay: Luminescence readout assay for measuring intracellular calcium (aequorin, CHO cells expressing human TRPM8; icilin, L-menthol or cold activation)). Details: CHO cells expressing human TRPM8, icilin activation (1 μM), aequorin luminescence; read-out: hTRPM8 IC50.
T1 construct: expressed in transfected cells; host or cells: Chinese hamster ovary (CHO) cells, T-REx tetracycline-inducible expression system (Invitrogen); co-transfected with pcDNA3.1 aequorin
Type: cell-based
Procedure, shortened: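 Activation was by 1 μM icilin, 100 μM L-menthol (test compound 2.5 min ahead) or cold buffer below 10° C (compound 1 min ahead). Calcium rise measured as aequorin luminescence in CHO cells with tetracycline-inducible human TRPM8.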

T1 sequence (Q7Z2W7 whole entry): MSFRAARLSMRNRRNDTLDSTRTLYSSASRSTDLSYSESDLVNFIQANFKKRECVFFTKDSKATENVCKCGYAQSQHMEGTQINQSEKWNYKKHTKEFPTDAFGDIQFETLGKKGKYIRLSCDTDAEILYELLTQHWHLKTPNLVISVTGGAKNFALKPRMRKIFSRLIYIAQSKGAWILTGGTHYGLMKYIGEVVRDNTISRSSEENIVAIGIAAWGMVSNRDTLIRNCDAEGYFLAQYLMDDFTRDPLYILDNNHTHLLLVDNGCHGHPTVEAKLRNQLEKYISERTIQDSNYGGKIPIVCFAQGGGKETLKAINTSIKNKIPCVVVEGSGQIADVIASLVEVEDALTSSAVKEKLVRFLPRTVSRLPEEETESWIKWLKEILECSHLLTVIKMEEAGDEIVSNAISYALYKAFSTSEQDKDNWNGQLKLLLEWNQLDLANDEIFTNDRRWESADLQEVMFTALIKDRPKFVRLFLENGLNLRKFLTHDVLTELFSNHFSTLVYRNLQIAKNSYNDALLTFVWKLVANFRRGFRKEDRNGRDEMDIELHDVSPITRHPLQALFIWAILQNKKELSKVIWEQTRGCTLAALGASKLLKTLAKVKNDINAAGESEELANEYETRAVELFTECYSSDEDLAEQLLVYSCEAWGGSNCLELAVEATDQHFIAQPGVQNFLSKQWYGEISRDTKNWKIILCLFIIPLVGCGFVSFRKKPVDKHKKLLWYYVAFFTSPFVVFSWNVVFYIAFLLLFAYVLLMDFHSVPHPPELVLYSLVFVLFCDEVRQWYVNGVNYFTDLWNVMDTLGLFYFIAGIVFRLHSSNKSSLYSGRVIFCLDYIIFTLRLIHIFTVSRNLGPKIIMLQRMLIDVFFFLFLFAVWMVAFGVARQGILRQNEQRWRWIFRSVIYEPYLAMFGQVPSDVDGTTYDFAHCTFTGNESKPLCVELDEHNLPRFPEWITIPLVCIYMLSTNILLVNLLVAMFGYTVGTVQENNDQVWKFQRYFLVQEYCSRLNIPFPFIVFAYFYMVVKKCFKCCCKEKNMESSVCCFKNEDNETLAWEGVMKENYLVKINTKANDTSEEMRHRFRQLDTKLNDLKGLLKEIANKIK

Row | SMILES | IC50 [nM]
1 | Cn1cncc1C(=O)N[C@]1(c2ccc(OC(F)(F)F)c(F)c2)CCOc2cccnc21 [Example 163, (S)—N-(4-(3-fluoro-4-(trifluoromethoxy)phenyl)-3,4-dihydro-2H-pyrano[3,2-b]pyridin-4-yl)-1-methyl-1H-imidazole-5-carboxamide 2,2,2-trifluoroacetate] | 102
2 | O=C(N[C@]1(c2ccc(OC(F)(F)F)c(F)c2)CCOc2nccnc21)c1ccc(=O)[nH]c1 [Example 164, (S)-N-(8-(3-fluoro-4-(trifluoromethoxy)phenyl)-7,8-dihydro-6H-pyrano[2,3-b]pyrazin-8-yl)-6-oxo-1,6-dihydropyridine-3-carboxamide] | 2230
3 | O=C(N[C@]1(c2ccc(OC(F)(F)F)c(F)c2)CC(=O)c2cccnc21)c1ccc(=O)[nH]c1 [Example 165, (S)-N-(7-(3-fluoro-4-(trifluoromethoxy)phenyl)-5-oxo-6,7-dihydro-5H-cyclopenta[b]pyridin-7-yl)-6-oxo-1,6-dihydropyridine-3-carboxamide] | 531
4 | Cc1cc(C(=O)N[C@]2(c3ccc(OC(F)(F)F)c(F)c3)CCOc3cccnc32)ncc1Br [Example 166, (S)-5-bromo-N-(4-(3-fluoro-4-(trifluoromethoxy)phenyl)-3,4-dihydro-2H-pyrano[3,2-b]pyridin-4-yl)-4-methylpicolin amide] | 10
5 | Cc1cc(C(=O)N[C@]2(c3ccc(OC(F)(F)F)c(F)c3)CCOc3cccnc32)ccc1Br [Example 167, (S)-4-bromo-N-(4-(3-fluoro-4-(trifluoromethoxy)phenyl)-3,4-dihydro-2H-pyrano [3,2-b]pyridin-4-yl)-3-methylbenzamide] | 19
6 | CC1(C)COC(c2ccc(C(=O)N[C@]3(c4ccc(OC(F)(F)F)c(F)c4)CCOc4cccnc43)cc2)=N1 [Example 168, (S)-4-(4,4-dimethyl-4,5-dihydrooxazol-2-yl)-N-(4-(3-fluoro-4-(trifluoromethoxy)phenyl)-3,4-dihydro-2H-pyrano[3,2-b]pyridin-4-yl)benzamide] | 146
7 | CCOC(=O)c1ccc(C(=O)N[C@]2(c3ccc(OC(F)(F)F)c(F)c3)CCOc3cccnc32)nc1C [Example 169, (S)-ethyl 6-((4-(3-fluoro-4-(trifluoromethoxy)phenyl)-3,4-dihydro-2H-pyrano[3,2-b]pyridin-4-yl)carbamoyl)-2-methylnicotinate] | 32
8 | O=C(N[C@]1(c2ccc(OC(F)(F)F)cc2F)CCOc2cccnc21)c1ccc(=O)[nH]c1 [Example 173, (S)-N-(4-(2-fluoro-4-(trifluoromethoxy)phenyl)-3,4-dihydro-2H-pyrano[3,2-b]pyridin-4-yl)-6-oxo-1,6-dihydropyridine-3-carboxamide] | 475
9 | O=C(O)c1cccc(C(=O)N[C@]2(c3ccc(OC(F)(F)F)c(F)c3)CCOc3cccnc32)c1 [Example 178, (S)-3-((4-(3-fluoro-4-(trifluoromethoxy)phenyl)-3,4-dihydro-2H-pyrano[3,2-b]pyridin-4-yl)carbamoyl) benzoic acid] | 72
10 | Cn1cnc(C(=O)N[C@]2(c3ccc(OC(F)(F)F)c(F)c3)CCOc3cccnc32)c1 [Example 179, (S)-N-(4-(3-fluoro-4-(trifluoromethoxy)phenyl)-3,4-dihydro-2H-pyrano[3,2-b]pyridin-4-yl)-1-methyl-1H-imidazole-4-carboxamide] | 305
11 | Cn1c(C(=O)N[C@]2(c3ccc(OC(F)(F)F)c(F)c3)CCOc3cccnc32)cnc1Br [Example 180, (S)-2-bromo-N-(4-(3-fluoro-4-(trifluoromethoxy)phenyl)-3,4-dihydro-2H-pyrano[3,2-b]pyridin-4-yl)-1-methyl-1H-imidazole-5-carboxamide] | 32
12 | COC(=O)c1c(C)cc(C(=O)N[C@]2(c3ccc(OC(F)(F)F)c(F)c3)CCOc3cccnc32)cc1C [Example 181, (S)-methyl 4-((4-(3-fluoro-4-(trifluoromethoxy)phenyl)-3,4-dihydro-2H-pyrano[3,2-b]pyridin-4-yl)carbamoyl)-2,6-dimethylbenzoate] | 14
13 | NS(=O)(=O)c1ccc(C(=O)N[C@]2(c3ccc(OC(F)(F)F)c(F)c3)CCOc3cccnc32)cc1 [Example 184, (S)-N-(4-(3-fluoro-4-(trifluoromethoxy)phenyl)-3,4-dihydro-2H-pyrano[3,2-b]pyridin-4-yl)-sulfamoylbenzamide] | 50
14 | COc1c(C(=O)O)cccc1C(=O)N[C@]1(c2ccc(OC(F)(F)F)c(F)c2)CCOc2cccnc21 [Example 186, (S)-3-((4-(3-fluoro-4-(trifluoromethoxy)phenyl)-3,4-dihydro-2H-pyrano[3,2-b]pyridin-4-yl)carbamoyl)-2-methoxybenzoic acid] | 66
15 | CCOC(=O)c1cc(C(=O)N[C@]2(c3ccc(OC(F)(F)F)c(F)c3)CCOc3cccnc32)c[nH]1 [Example 187, (S)-ethyl 4-((4-(3-fluoro-4-(trifluoromethoxy)phenyl)-3,4-dihydro-2H-pyrano[3,2-b]pyridin-4-yl)carbamoyl)-1H-pyrrole-2-carboxylate] | 54
16 | O=C(N[C@]1(c2ccc(OC(F)(F)F)c(F)c2)CCOc2cccnc21)c1ncco1 [Example 189, (S)-N-(4-(3-fluoro-4-(trifluoromethoxy)phenyl)-3,4-dihydro-2H-pyrano[3,2-b]pyridin-4-yl) oxazole-2-carboxamide] | 134
17 | O=C(N[C@]1(c2ccc(OC(F)(F)F)c(F)c2)CCOc2cccnc21)c1cnsc1 [Example 190, (S)-N-(4-(3-fluoro-4-(trifluoromethoxy)phenyl)-3,4-dihydro-2H-pyrano[3,2-b]pyridin-4-yl) isothiazole-4-carboxamide] | 152
18 | CCOC(=O)c1cc(C(=O)N[C@]2(c3ccc(OC(F)(F)F)c(F)c3)CCOc3cccnc32)cc(C(=O)OCC)c1 [Example 192, (S)-diethyl 5-((4-(3-fluoro-4-(trifluoromethoxy)phenyl)-3,4-dihydro-2H-pyrano[3,2-b]pyridin-4-yl)carbamoyl) isophthalate] | 94
19 | COC(=O)c1ccn(CC(=O)N[C@]2(c3ccc(OC(F)(F)F)c(F)c3)CCOc3cccnc32)c1 [Example 193, (S)-melhyl 1-(2-((4-(3-fluoro-4-(trifluoromethoxy)phenyl)-3,4-dihydro-2H-pyrano[3,2-b]pyridin-4-yl)amino)-2-oxoethyl)-1H-pyrrole-3-carboxylate] | 584

Second part, the molecule after the results:

Row | IC50 [nM] | SMILES
20 | 12 | N#Cc1ccc(C(=O)N[C@]2(c3ccc(OC(F)(F)F)c(F)c3)CCOc3cccnc32)nc1 [Example 171, (S)-5-cyano-N-(4-(3-fluoro-4-(trifluoromethoxy)phenyl)-3,4-dihydro-2H-pyrano[3,2-b]pyridin-4-yl) picolinamide]
21 | 22 | COC(=O)c1ccc(C(=O)N[C@]2(c3ccc(C(F)(F)F)c(F)c3)CCOc3cccnc32)nc1 [Example 172, (S)-methyl 6-((4-(3-fluoro-4-(trifluoromethyl)phenyl)-3,4-dihydro-2H-pyrano[3,2-b]pyridin-4-yl)carbamoyl) nicotinate]
22 | 128 | COC(=O)c1ccc(C(=O)N[C@]2(c3ccc(OC(F)(F)F)cc3F)CCOc3cccnc32)nc1 [Example 174, (S)-methyl 6-((4-(2-fluoro-4-(trifluoromethoxy)phenyl)-3,4-dihydro-2H-pyrano[3,2-b]pyridin-4-yl)carbamoyl) nicotinate]
23 | 43 | COC(=O)c1ccc(C(=O)N[C@]2(c3ccc(C(F)(F)F)cc3)CCOc3cccnc32)nc1 [Example 175, (S)-methyl 6-((4-(4-(trifluoromethyl)phenyl)-3,4-dihydro-2H-pyrano[3,2-b]pyridin-4-yl)carbamoyl) nicotinate]
24 | 54 | COC(=O)c1ccc(C(=O)N[C@]2(c3ccc(OC(F)(F)F)cc3)CCOc3cccnc32)nc1 [Example 176, (S)-methyl 6-((4-(4-(trifluoromethoxy)phenyl)-3,4-dihydro-2H-pyrano[3,2-b]pyridin-4-yl)carbamoyl) nicotinate]
25 | 209 | O=C(O)c1cnc(C(=O)N[C@]2(c3ccc(OC(F)(F)F)c(F)c3)CCOc3cccnc32)cn1 [Example 177, (S)-5-((4-(3-fluoro-4-(trifluoromethoxy)phenyl)-3,4-dihydro-2H-pyrano[3,2-b]pyridin-4-yl)carbamoyl) pyrazine-2-carboxylic acid]
26 | 36 | COC(=O)c1cc(C(=O)N[C@]2(c3ccc(OC(F)(F)F)c(F)c3)CCOc3cccnc32)ccc1OC [Example 182, (S)-methyl 5-((4-(3-fluoro-4-(trifluoromethoxy)phenyl)-3,4-dihydro-2H-pyrano[3,2-b]pyridin-4-yl)carbamoyl)-2-methoxybenzoate]
27 | 21 | COC(=O)c1ccc(C(=O)N[C@]2(c3ccc(Cl)c(Cl)c3)CCOc3cccnc32)nc1 [Example 183, (S)-methyl 6-((4-(3,4-dichlorophenyl)-3,4-dihydro-2H-pyrano[3,2-b]pyridin-4-yl)carbamoyl) nicotinate]
28 | 89 | O=C(N[C@]1(c2ccc(F)c(C(F)(F)F)c2)CCOc2cccnc21)c1ccc(=O)[nH]c1 [Example 185, (S)-N-(4-(4-fluoro-3-(trifluoromethyl)phenyl)-3,4-dihydro-2H-pyrano[3,2-b]pyridin-4-yl)-6-oxo-1,6-dihydropyridine-3-carboxamide]
29 | 15 | COC(=O)c1ccc(C(=O)N[C@]2(c3ccc(OC(F)(F)F)c(F)c3)CCOc3cccnc32)cc1N [Example 188, (S)-methyl 2-amino-4-((4-(3-fluoro-4-(trifluoromethoxy)phenyl)-3,4-dihydro-2H-pyrano[3,2-b]pyridin-4-yl)carbamoyl) benzoate]
30 | 11 | CCc1cc(C(=O)N[C@]2(c3ccc(OC(F)(F)F)c(F)c3)CCOc3cccnc32)ccc1C(=O)OC [Example 191, (S)-methyl 2-ethyl-4-((4-(3-fluoro-4-(trifluoromethoxy)phenyl)-3,4-dihydro-2H-pyrano[3,2-b]pyridin-4-yl)carbamoyl) benzoate]
